Results taken from US20240358693A1, “METHODS OF TREATING PAIN” (Aisa Pharma, Inc., priority 2023, published 2024).

Tested on: participants with SSc-RP
Assay: Average severity of weekly RP attacks (VAS 0-10 cm scale)
Assay type: in vivo, human
From the text: The absolute change in average severity of weekly RP attacks (VAS 0-10 cm scale) from baseline to the end of each Dosing Period was and will be a secondary outcome variable. The sponsor-developed participant-informed diary will be used to record data. Average severity of weekly RP attacks is defined as the total severity scores of RP attacks divided by total number of RP attacks within the last 7 days of each dosing period. Total severity scores of RP attacks during the last 7 days of screening period divided by the total number of RP attacks will be used as baseline for the analysis of all periods. The variable will be calculated similar to frequency data as before.

[1] = Cilnidipine 10 mg, n=1, Excluding Outliers, ITT Population - Part A
[2] = Cilnidipine 10 mg, n=1, ITT Population - Part A
[3] = Cilnidipine 10 mg, n=1, by Baseline RCS, first subgroup, ITT Population - Part A
[4] = Cilnidipine 10 mg, Excluding Outliers, ITT Population - Part A
[5] = Cilnidipine 10 mg, Excluding Outliers, by Baseline RCS, first subgroup, ITT Population - Part A
[6] = Cilnidipine 10 mg, ITT Population - Part A
[7] = Cilnidipine 10 mg, first Baseline RCS subgroup block (not named), ITT Part A
[8] = Cilnidipine 10 mg, first Baseline RCS subgroup block (not named), ITT Part A, score 0-10
[9] = Cilnidipine 20 mg, n=2, Excluding Outliers, ITT Population - Part A
[10] = Cilnidipine 20 mg, n=2, ITT Population - Part A
[11] = Cilnidipine 20 mg, n=2, by Baseline RCS, first subgroup, ITT Population - Part A
[12] = Cilnidipine 20 mg, Excluding Outliers, ITT Population - Part A
[13] = Cilnidipine 20 mg, Excluding Outliers, by Baseline RCS, first subgroup, ITT Population - Part A

In the case of `COCCOC(=O)C1=C(C)NC(C)=C(C(=O)OC/C=C/c2ccccc2)C1c1cccc([N+](=O)[O-])c1` (stereo not shown) [Cilnidipine, cilnidipine], the “Average Severity (0-10) of Weekly Symptomatic RP Attacks, Mean” value [1] is reported as 3.77, the “Average Severity (0-10) of Weekly Symptomatic RP Attacks, Median” value [1] is reported as 3.77 and the “Average Severity of Weekly Symptomatic RP Attacks, Change from Baseline, Mean” value [1] is reported as 0.28. The “Average Severity of Weekly Symptomatic RP Attacks, Change from Baseline, Median” value [1] was 0.28, the “Average Severity of Weekly Symptomatic RP Attacks, Percent Change from Baseline, Mean” value [1] was 8.05% and the “Average Severity of Weekly Symptomatic RP Attacks, Percent Change from Baseline, Median” value [1] was 8.05%. The “Average Severity (0-10) of Weekly Symptomatic RP Attacks, Mean” value [2] was 3.77, the “Average Severity (0-10) of Weekly Symptomatic RP Attacks, Median” value [2] was 3.77 and the “Average Severity of Weekly Symptomatic RP Attacks, Change from Baseline, Mean” value [2] was 0.28. For the same compound, the “Average Severity of Weekly Symptomatic RP Attacks, Change from Baseline, Median” value [2] was 0.28, the “Average Severity of Weekly Symptomatic RP Attacks, Percent Change from Baseline, Mean” value [2] was 8.05% and the “Average Severity of Weekly Symptomatic RP Attacks, Percent Change from Baseline, Median” value [2] was 8.05%. For the same compound, the “Average Severity (0-10) of Weekly Symptomatic RP Attacks, Mean” value [3] was 3.77, the “Average Severity (0-10) of Weekly Symptomatic RP Attacks, Median” value [3] was 3.77 and the “Average Severity of Weekly Symptomatic RP Attacks, Change from Baseline, Mean” value [3] was 0.28. The “Average Severity of Weekly Symptomatic RP Attacks, Change from Baseline, Median” value [3] was 0.28, the “Average Severity of Weekly Symptomatic RP Attacks, Percent Change from Baseline, Mean” value [3] was 8.05% and the “Average Severity of Weekly Symptomatic RP Attacks, Percent Change from Baseline, Median” value [3] was 8.05%. For the same compound, the “Average Severity of Weekly RP Attacks (All Attacks), Change from Baseline, Mean” value [4] was 0.02, the “Average Severity of Weekly RP Attacks (All Attacks), Change from Baseline, Median” value [4] was 0.02 and the “Average Severity of Weekly RP Attacks (All Attacks), Mean” value (shortened to “Average Severity … (All Attacks), Mean”) [4] was 3.05. For the same compound, the “Average Severity of Weekly RP Attacks (All Attacks), Median” value (from here on “Average Severity … (All Attacks), Median”) [4] was 3.05, the “Average Severity of Weekly RP Attacks (All Attacks), Percent Change from Baseline, Mean” value [4] was 0.55% and the “Average Severity of Weekly RP Attacks (All Attacks), Percent Change from Baseline, Median” value [4] was 0.55%. For the same compound, the “Average Severity of Weekly Symptomatic RP Attacks (Mean)” value [5] was 3.77, the “Average Severity of Weekly Symptomatic RP Attacks (Median)” value [5] was 3.77 and the “Average Severity of Weekly Symptomatic RP Attacks, Change from Baseline, Mean” value [5] was 0.28. For the same compound, the “Average Severity of Weekly Symptomatic RP Attacks, Change from Baseline, Median” value [5] was 0.28, the “Average Severity of Weekly Symptomatic RP Attacks, Percent Change from Baseline, Mean” value [5] was 8.05% and the “Average Severity of Weekly Symptomatic RP Attacks, Percent Change from Baseline, Median” value [5] was 8.05%. For the same compound, the “Average Severity of Weekly RP Attacks (All Attacks), Change from Baseline, Mean” value [6] was 0.02, the “Average Severity of Weekly RP Attacks (All Attacks), Change from Baseline, Median” value [6] was 0.02 and the “Average Severity … (All Attacks), Mean” value [6] was 3.05. For the same compound, the “Average Severity … (All Attacks), Median” value [6] was 3.05, the “Average Severity of Weekly RP Attacks (All Attacks), Percent Change from Baseline, Mean” value [6] was 0.55% and the “Average Severity of Weekly RP Attacks (All Attacks), Percent Change from Baseline, Median” value [6] was 0.55%. For the same compound, the “Average Severity of Weekly RP Attacks (All Attacks), Percent Change from Baseline, Mean” value [7] was 0.55%, the “Average Severity of Weekly RP Attacks (All Attacks), Percent Change from Baseline, Median” value [7] was 0.55% and the “Average Severity of Weekly RP Attacks (All Attacks), Change from Baseline, Mean” value [8] was 0.02. The “Average Severity of Weekly RP Attacks (All Attacks), Change from Baseline, Median” value [8] was 0.02, the “Average Severity … (All Attacks), Mean” value [8] was 3.05 and the “Average Severity … (All Attacks), Median” value [8] was 3.05. The “Average Severity (0-10) of Weekly Symptomatic RP Attacks, Mean” value [9] was 2.30, the “Average Severity (0-10) of Weekly Symptomatic RP Attacks, Median” value [9] was 2.30 and the “Average Severity of Weekly Symptomatic RP Attacks, Change from Baseline, Mean” value [9] was −1.44. The “Average Severity of Weekly Symptomatic RP Attacks, Change from Baseline, Median” value [9] was −1.44, the “Average Severity of Weekly Symptomatic RP Attacks, Percent Change from Baseline, Mean” value [9] was −32.85% and the “Average Severity of Weekly Symptomatic RP Attacks, Percent Change from Baseline, Median” value [9] was −32.85%. The “Average Severity (0-10) of Weekly Symptomatic RP Attacks, Mean” value [10] was 2.30, the “Average Severity (0-10) of Weekly Symptomatic RP Attacks, Median” value [10] was 2.30 and the “Average Severity of Weekly Symptomatic RP Attacks, Change from Baseline, Mean” value [10] was −1.44. For the same compound, the “Average Severity of Weekly Symptomatic RP Attacks, Change from Baseline, Median” value [10] was −1.44, the “Average Severity of Weekly Symptomatic RP Attacks, Percent Change from Baseline, Mean” value [10] was −32.85% and the “Average Severity of Weekly Symptomatic RP Attacks, Percent Change from Baseline, Median” value [10] was −32.85%. For the same compound, the “Average Severity (0-10) of Weekly Symptomatic RP Attacks, Mean” value [11] was 2.30, the “Average Severity (0-10) of Weekly Symptomatic RP Attacks, Median” value [11] was 2.30 and the “Average Severity of Weekly Symptomatic RP Attacks, Change from Baseline, Mean” value [11] was −1.44. For the same compound, the “Average Severity of Weekly Symptomatic RP Attacks, Change from Baseline, Median” value [11] was −1.44, the “Average Severity of Weekly Symptomatic RP Attacks, Percent Change from Baseline, Mean” value [11] was −32.85% and the “Average Severity of Weekly Symptomatic RP Attacks, Percent Change from Baseline, Median” value [11] was −32.85%. For the same compound, the “Average Severity of Weekly RP Attacks (All Attacks), Change from Baseline, Mean” value [12] was −1.07, the “Average Severity of Weekly RP Attacks (All Attacks), Change from Baseline, Median” value [12] was −1.07 and the “Average Severity … (All Attacks), Mean” value [12] was 2.30. For the same compound, the “Average Severity … (All Attacks), Median” value [12] was 2.30, the “Average Severity of Weekly RP Attacks (All Attacks), Percent Change from Baseline, Mean” value [12] was −27.26% and the “Average Severity of Weekly RP Attacks (All Attacks), Percent Change from Baseline, Median” value [12] was −27.26%. The “Average Severity of Weekly Symptomatic RP Attacks (Mean)” value [13] was 2.30, the “Average Severity of Weekly Symptomatic RP Attacks (Median)” value [13] was 2.30 and the “Average Severity of Weekly Symptomatic RP Attacks, Change from Baseline, Mean” value [13] was −1.44. For the same compound, the “Average Severity of Weekly Symptomatic RP Attacks, Change from Baseline, Median” value [13] was −1.44, the “Average Severity of Weekly Symptomatic RP Attacks, Percent Change from Baseline, Mean” value [13] was −32.85% and the “Average Severity of Weekly Symptomatic RP Attacks, Percent Change from Baseline, Median” value [13] was −32.85%. The “Average Severity of Weekly RP Attacks (All Attacks), Change from Baseline, Mean” value (Cilnidipine 20 mg, ITT Population - Part A) was −1.07.
